{"source": "patent US20020183377A1", "about": "(priority 1999, published 2002)", "key": {"[1]": {"system": "postmenopausal women", "conditions": "unpublished data; cited from earlier work"}, "[2]": {"system": "alopecia in men", "conditions": "cited from earlier work"}, "[3]": {"system": "female patients having diffuse or androgenetic, non-epulotic alopecia", "test": "Patient questionnaire (success of therapy, side effects)", "assay_type": "in vivo, human", "experimental": "Undesirable pharmaceutical side effects were determined by means of a patient questionnaire. At the end of the study, an additional termination questionnaire was filled in by the patients, in which they could express their views on the success of the therapy, on the chronological occurrence of side effects and on the administration form of the preparation."}, "[4]": {"test": "Toxicity and side effects of melatonin in humans (oral, topical)", "assay_type": "in vivo, human", "conditions": "topical application in a nanocolloid preparation and alcoholic solutions, over 60 subjects", "description": "Although the mechanisms of the action of melatonin are still not comprehensively clarified in detail, melatonin appears to control the adaptation of the organism to environmental stimuli, in particular light and temperature."}, "[5]": {"system": "female patients having diffuse or androgenetic, non-epulotic alopecia", "test": "Hair shaft measurements (diameter, breaking force, breaking distance) in the same study", "assay_type": "in vivo, human", "conditions": "for power of resistance of hair: frontal hair", "description": "The treatment period was 6 months. […] From the hair samples obtained for the trichogram, frontally and occipitally at least 10 hairs in each case were used for the hair shaft measurements. These samples were investigated before the beginning of the preparation application and after 3 and 6 months' treatment. For the measurement of the diameter and of the mechanical properties of the hair, 5 hairs from the frontal and occipital taking region of the trichograms were in each case used. For the measurement of the force which had to be used in order to break the hair, the hairs were first stretched, by means of a computer-controlled measuring and control unit at a constant force (Newton), to breaking point. In a manner analagous to the determination of the breaking force, it was possible to determine the stretching distance up to the breaking point by means of the measuring unit. The stretching distance was measured in mm."}, "[6]": {"system": "hair follicles of the cashmere goat", "conditions": "cited from earlier work"}, "[7]": {"system": "hair follicle of goats", "conditions": "goats treated over 14 days, vs untreated goats; cited from earlier work"}, "[8]": {"system": "female patients having diffuse or androgenetic, non-epulotic alopecia", "test": "Trichograms (anagenic, telogenic, dystrophic hair rates) in randomized placebo-controlled double-blind study", "assay_type": "in vivo, human", "conditions": "for telogenic rate, frontal trichogram / anagenic rate, frontal trichogram / anagenic rate, occipital trichogram / telogenic rate, occipital trichogram: all patients", "experimental": "The trial was carried out as a randomized, placebo-controlled double-blind study on 40 female patients having diffuse or androgenetic, non-epulotic alopecia, who, after clarification, declared themselves willing to participate in the investigation. […] The treatment period was 6 months. […] 40 women of 20 to 70 years of age with healthy skin and good general health and having androgenetic or diffuse alopecia were tested. Care was taken that none of the women were pregnant or lactating, there was no dermatological local therapy on the scalp and no epulotic alopecia was present. Furthermore, no hair-cosmetic measures were carried out during the study. […] For the investigation of the […] telogenic rates, trichograms were prepared. In this procedure, 5 days in each case after the last hair wash 30 to 50 hairs were obtained frontally approximately 2 cm from the forehead/hair boundary and laterally from the sagittal line in a standardized manner by epilation using a special […]. A 2nd epilation was taken occipitally 2 cm laterally of the protuberantia occipitalis. The trichograms were carried out before the beginning of the study, and after 3 and 6 months' treatment. The hair roots obtained were mounted on slides, analogously counted by means of a light microscope at 20-times magnification and the percentage ratios of the […], telogenic and dystrophic hairs were calculated. All the individual data from the trichogram investigations, the hair shaft measurements and the melatonin measurements were recorded in Microsoft Excel and mean values and standard deviations were calculated. The statistical analysis of the measured values at the various points in time in the two treatment groups was carried out by the SPSS statistics program."}, "[9]": {"conditions": "drug group, end of 6-month study"}, "[10]": {"conditions": "drug group, under topical treatment"}, "[11]": {"conditions": "patients treated with melatonin"}, "[12]": {"conditions": "drug group n=14, starting value"}}, "note": "“And” between values parts separate entries of the source, which are not always exact repeats. Equal entries are not always repeated.", "data": [{"compound": "CC(C)(C)NC(=O)[C@H]1CC[C@H]2[C@@H]3CC[C@H]4NC(=O)C=C[C@]4(C)[C@H]3CC[C@]12C", "note": "[finasteride]", "values": [{"measurement": "efficacy compared with placebo", "setting": "[1]", "value": "did not show any superior efficacy compared with placebo"}, {"measurement": "cases with slight to marked improvement in the hair density", "setting": "[2]", "value": 66, "unit": "%"}, {"measurement": "cases with stopping of the hair loss", "setting": "[2]", "value": 80, "unit": "%"}]}, {"compound": "COc1ccc2[nH]cc(CCNC(C)=O)c2c1", "note": "[melatonin, N-acetyl-5-methoxytryptamine]", "values": [{"measurement": "patients in whom the hair loss had stopped", "setting": "[3]; [9]", "value": 23, "unit": "%"}, {"measurement": "patients in whom the hair loss had worsened", "setting": "[3]; [9]", "value": 8, "unit": "%"}, {"measurement": "patients stating that the hair loss had improved", "setting": "[3]; [9]", "value": 69, "unit": "%"}, {"measurement": "occurrence of tiredness compared with the placebo group", "setting": "[3]; topical application to the scalp, 6 months", "value": "no increased occurrence of tiredness"}, {"measurement": "local or systemic side effects", "setting": "[4]", "value": "no local or systemic side effects"}, {"measurement": "accumulation in the melatonin serum level", "setting": "6 months' topical treatment", "value": "did not occur"}, {"measurement": "melatonin plasma level versus physiological night level (not exceeded)", "setting": "[10]", "value": "≤ 250", "unit": "pg/ml"}, {"measurement": "melatonin plasma level, individual peak values", "setting": "[10]", "value": 180, "unit": "pg/mL"}, {"measurement": "patients with enlargement of the hair diameter, hair taken frontally", "setting": "[5]; drug group, diagnosis androgenetic alopecia", "value": 67, "unit": "%"}, {"measurement": "power of resistance of hair", "setting": "[5]; after 6 months' melatonin treatment", "value": 0.61, "unit": "N"}, {"measurement": "power of resistance of hair", "setting": "[5]; melatonin treatment, before treatment", "value": 0.56, "unit": "N"}, {"measurement": "patients with improvements of occipital hair parameters, group having diffuse alopecia", "setting": "[5]; occipital hair, diffuse alopecia, melatonin", "value": 86, "unit": "%"}, {"measurement": "patients with enlargement of the hair diameter, hair taken occipitally", "setting": "[5]; [11]", "value": 55, "unit": "%"}, {"measurement": "patients with increase in the stretching force, hair taken occipitally", "setting": "[5]; [11]", "value": 70, "unit": "%"}, {"measurement": "melatonin concentration giving greater growth of the hair shafts than lower dose and control", "setting": "[6]; 24 hour interval", "value": "≥ 150", "unit": "mg/mL"}, {"measurement": "melatonin concentration with best growth rates and maximal total growth", "setting": "[6]; after 120 hours", "value": 300, "unit": "ng/L"}, {"measurement": "effect on hair follicles (histology of skin biopsies)", "setting": "[7]", "value": "induction of hair growth by changeover of the hair follicle from the telogenic phase to the proanagenic phase"}, {"measurement": "anagenic rate, occipital trichogram, androgenetic alopecia", "setting": "[8]; drug group n=6, after treatment", "value": 87.8, "unit": "%"}, {"measurement": "telogenic rate, occipital trichogram, androgenetic alopecia", "setting": "[8]; drug group n=6, month 3", "value": 18.3, "unit": "%"}, {"measurement": "telogenic rate, occipital trichogram, androgenetic alopecia", "setting": "[8]; drug group n=6, month 6, p≦0.035 vs starting result", "value": 10.8, "unit": "%"}, {"measurement": "anagenic rate, occipital trichogram, androgenetic alopecia", "setting": "[8]; drug group n=6, starting value", "value": 73.6, "unit": "%"}, {"measurement": "telogenic rate, occipital trichogram, androgenetic alopecia", "setting": "[8]; drug group n=6, starting value", "value": 26.5, "unit": "%"}, {"measurement": "telogenic rate, occipital trichogram, diffuse alopecia", "setting": "[8]; drug group n=14, after treatment", "value": 13.2, "unit": "%"}, {"measurement": "anagenic rate, occipital trichogram, diffuse alopecia", "setting": "[8]; drug group n=14, after treatment, p=0,02 vs placebo for increase", "value": 83.7, "unit": "%"}, {"measurement": "anagenic rate, occipital trichogram, diffuse alopecia", "setting": "[8]; [12]", "value": 77.4, "unit": "%"}, {"measurement": "telogenic rate, occipital trichogram, diffuse alopecia", "setting": "[8]; [12]", "value": 21.6, "unit": "%"}, {"measurement": "telogenic rate, frontal trichogram", "setting": "[8]; drug group, after 3 months", "value": 16.8, "unit": "%"}, {"measurement": "telogenic rate, frontal trichogram", "setting": "[8]; drug group, after 6 months", "value": 15.9, "unit": "%"}, {"measurement": "anagenic rate, frontal trichogram", "setting": "[8]; drug group, after treatment with 0.1% melatonin spray (time not given; 6-month study)", "value": 82.6, "unit": "%"}, {"measurement": "anagenic rate, occipital trichogram", "setting": "[8]; drug group, month 3", "value": 78.8, "unit": "%"}, {"measurement": "telogenic rate, occipital trichogram", "setting": "[8]; drug group, month 3", "value": 18.1, "unit": "%"}, {"measurement": "anagenic rate, occipital trichogram", "setting": "[8]; drug group, month 6, p≦0.021 vs starting result", "value": 85, "unit": "%"}, {"measurement": "telogenic rate, occipital trichogram", "setting": "[8]; drug group, month 6, p≦0.048 vs month 3, p≦0.005 over 6 months", "value": 12.5, "unit": "%"}, {"measurement": "anagenic rate, occipital trichogram", "setting": "[8]; drug group, starting value", "value": 76.3, "unit": "%"}, {"measurement": "telogenic rate, frontal trichogram", "setting": "[8]; drug group, starting value", "value": 18.9, "unit": "%"}, {"measurement": "telogenic rate, occipital trichogram", "setting": "[8]; drug group, starting value (month 1)", "value": "23.03% and 23%"}, {"measurement": "anagenic rate, frontal trichogram", "setting": "[8]; drug group, starting value before therapy", "value": 80.4, "unit": "%"}, {"measurement": "differences in frontal anagenic and telogenic rates after 3 and 6 months compared with starting values", "setting": "[8]; drug group, frontal", "value": "not significant"}, {"measurement": "harmful actions of the preparation on the physiological hair root (dystrophic hair rate)", "setting": "[8]; dystrophic hair always in the normal range", "value": "no harmful actions"}]}]}
